Legend:
[1] = tested on: Akkermansia spp; conditions: reported in other literature; cited from earlier work
[2] = tested on: human microbiota; assay: SILAMi-based metaproteomics of microbiota cultured with or without monosaccharides; format: cell-based; conditions: 2.5 g/L monosaccharide vs non-treated control; for overall effect on the metaproteome: 3,158 quantified proteins
Method: Finally, it was tested whether the […] labelled-standard could be used to distinguish the effects of different monosaccharides on the microbiota. It will be understood that monosaccharides are used herein as an example of a compound that may have an effect on the microbiota. However, other compounds that have be introduced to a microbiota sample or to a subject of which a microbiota sample has been obtained, that may impact the microbiota, may be similarly analyzed as described herein. Overall, 18 samples cultured with or without 2.5 g/L of each monosaccharide (N-acetyl glucosamine or GlcNAc, mannose, galactose, fucose, or glucose) were analyzed, by […]-based metaproteomics which led to 3,158 quantified proteins. Two hundred and forty-six protein groups were identified as being differentially abundant as compared to the non-treated control group (Table 4): […]

[3] = tested on: Akkermansia genus species in cultured microbiome; assay: RapidAIM assay of an individual microbiome treated with berberine, species-level taxonomic quantification on MetaLab; format: cell-based; conditions: high concentration vs sample cultured without drug treatment
From the text: Developing RapidAIM in a multi-well plate format: microbiota can be inoculated and grown in culture media. Assays, performed in any multiwall format (e.g. 6 well to 96 well plate formats, or any other type of format, for example, using tubes) and can be titrated, examining at each stage whether the yield per well provides sufficient material for downstream analyses. The analysis can be performed using a workflow for metaproteome as described in Zhang et al. “MetaPro-IQ: a universal metaproteomic approach to studying human and mouse gut microbiota”, Microbiome, 2016 Jun. 24:4(1):31, doi: 10.1186/s40168-016-0176-z. The workflow uses the close-to-complete human or mouse gut microbial gene catalog as a database and uses an iterative database search strategy. An example of a high-through put experimental workflow for the RapidAIM has been established based on a 96-well format (FIG. 9). This workflow includes, (A) 96-well based microbiome culturing, and (B) 96-well based metaproteomics analysis.
As an example, RapidAIM was used to assay an individual a microbiome treated with a high, medium or low dose of berberine compared to the sample cultured without drug treatment (FIG. 10). The taxonomic composition at the species level were quantified in each of the cultured microbiome sample on the MetaLab bioinformatics platform.

CN(C)C(=N)N=C(N)N [Metformin]
Akkermansia spp in the gut microbiome [1]: increased

CC(=O)N[C@H]1C(O)O[C@H](CO)[C@@H](O)[C@@H]1O (some centres unmarked) [GlcNAc, N-acetyl glucosamine]
change of GlcNAc degrading proteins [2]: significant increase | change of asparagine synthase [2]: significantly increased | overall effect on the metaproteome [2]: most dramatic alterations of the metaproteome

C[C@H](O)[C@@H](O)[C@@H](O)[C@H](O)C=O [fucose]
change of cluster 206, mainly fucose utilization-related proteins [2]: increased only in the fucose-treated microbiota | change of quantified fucose utilizing proteins in the fucose utilization pathway [2]: all of the six quantified fucose utilizing proteins in the fucose utilization pathway were increased | overall effect on the metaproteome [2]: smallest effect on the metaproteome

COc1ccc2cc3[n+](cc2c1OC)CCc1cc2c(cc1-3)OCO2 [Berberine]
abundances of the species originating from the Akkermansia genus [3]: significantly increased
